In series [1] the target is NK1 receptor (Meriones unguiculatus (Mongolian jird) (Gerbillus unguiculatus), UniProt Q5DUB1). Description: Effect on foot-tapping induced by NK1 receptor agonist GR73632. The class given is in vivo. Particulars: male gerbil, 0.1 mg/kg iv, GR73632 after four hours. The method, then: (1) Effect on Foot-Tapping
The test compound solution was prepared by dissolving the test compound in a vehicle (a mixture of 50% N,N-dimethylacetamide (Wako Pure Chemical Industries), 30% propylene glycol (Wako Pure Chemical Industries). 4% 2-hydroxypropyl-β-cyclodextrin (Wako Pure Chemical Industries) and 16% distilled water).
(§1) A male gerbil (Japan SLC) was anesthetized with isoflurane, and 0.1 mg/kg of a test compound was administered from the jugular vein. After four hours. GR73632 (5 pmol/5 μl saline), which is an NK1 receptor agonist, was administered into the cerebral ventricle at the part 1 mm lateral to and 4.5 mm below the bregma in the head, under anesthesia with isoflurane. After the administration, the gerbil was moved to an observation cage, and the foot-tapping period during 30 minutes after the recovery of the righting reflex was measured. The foot-tapping inhibition rate (%) of each test compound was calculated by the following equation. Foot-tapping inhibition rate (%)−{1−(Fool-tapping period when test compound was administered)/(Foot-tapping period when solvent was administered)}×100 (2) Measurement of Drug Concentrations
(§2) In the table, Ex. No. means the Example number. Inhibition (%) is the loot-tapping inhibition rate, and Cone. (nM) is the drug concentration in the brain.

The nature of series [2]: Measurement of drug concentrations in the brain after foot-tapping. The format is in vivo. Particulars: male gerbil, 0.1 mg/kg iv, after foot-tapping was finished. The method, then: as §1
After foot-tapping was finished, laparotomy was performed immediately under anesthesia with ether, and a blood sample was taken from the abdominal vena cava. At the same lime, the brain was extracted. Through a quantitative analysis using liquid chromatography-mass spectrometry (LC/MS), the concentrations of the test compound in the plasma and the brain were measured.
as §2

The target in series [3] is human NK1 receptor (Homo sapiens (Human), UniProt P25103). In words: Inhibitory effect on human NK1 receptor (substance P-induced increase in intracellular calcium concentration). The format is cell-based. Particulars: substance P 1 μM, compound 0.1 μM; read-out: SPRR (%), Substance P-Response Remaining (intracellular calcium concentration). The method, then:
Inhibitory Effect on Human NK1 Receptor
(1) Preparation of Human NK1 Receptor-Expressing Cells
Human NK1 receptor-expressing cells were prepared by the same methods as those described in 2-3 of Test Example 1.
(2) Study on Inhibitory Effect on Increase in Intracellular Calcium Concentration
The human NK1 receptor-expressing cells were washed with 300 μL/well of a washing solution (20 mM HEPES/Hank's Balanced Salt Solution (HBSS) pH 7.3). A fluorescent calcium indicator (Fluo-4 Direct Calcium Assay Kit, Life Technologies, containing 0.42 mM probenecid and 0.1% bovine serum albumin, prepared according to the protocol of the product) was added to the wells at 150 μL/well, and the plate was incubated at 37° C. for 30 minutes in an incubator. Then. DMSO solutions of a test compound, which were prepared at an 80-time higher concentration using 100% dimethyl sulfoxide (DMSO), were added to the wells at 2.5 μL/well (final concentrations of 0.1, 1 and 10 μM), and the solutions were mixed. Then, the plate was further incubated at […] for 30 minutes in an incubator. After 30 minutes, the intracellular calcium concentrations were measured immediately.
The intracellular calcium concentrations were each measured as a fluorescent signal using FDSS (registered trademark) 7000 (Hamamatsu Photonics). A substance P (Peptide Institute. Inc.) solution which was prepared at 0.4 μM or 4 μM using an assay buffer (20 mM HEPES/Hank's Balanced Salt Solution (HBSS) pH 7.3, containing 0.1% bovine serum albumin) was added automatically to each well at 50 μL/well (final concentration of 0.1 or 1 μM) 10 seconds after starting reading, and the fluorescent signal was measured up to 120 seconds.
The intracellular calcium concentration (%) of the cells to which a test compound was added was calculated by the equation below, where the fluorescent signal of the group to which the vehicle (DMSO) was added was regarded as 100%, and the fluorescent signal before the addition of substance P was regarded as 0%. Intracellular calcium concentration (%)—(Fluorescent signal of test compound addition group)/(Fluorescent signal of vehicle addition group)×100
The intracellular calcium concentration (%) calculated was regarded as the remaining agonist activity of substance P (Substance P-Response Remaining: SPRR). In the table, Ex. No. means the Example number. SPRR (%) is the value obtained when the concentration of substance P was 1 μM and the concentration of the compound was 0.1 μM.
Background: A change in cytosolic calcium serves as a functional read-out for many receptors and channels.

Series [4] has as its target human CYP3A4 (Homo sapiens (Human), UniProt P08684). In words: Inhibitory effect on CYP3A4. The format is in vitro ADME. The note with it: 30-minute pre-incubation, Luciferin-IPA substrate; read-out: IC50 (μM), CYP3A4 inhibition. The method, then:
Inhibitory Effect on CYP3A4
Enzyme reaction was performed by incubating in a potassium phosphate buffer solution (pH 7.4) containing 1 nM to 20 μM test compound, 3.2 mM magnesium chloride, 0.2 pmol human CYP3A4 (BD Biosciences), 0.5 mM reduced nicotinamide adenine dinucleotide phosphate (NADPH) and 3 μM Luciferin-IPA (Promega) at 37° C. for 10 minutes. The volume of the reaction solution was 50 μL/well. The 30-minute pre-incubation group was incubated at 37° C. for 30 minutes before adding tire substrate, the Luciferin-IPA solution (12.5 μL/well). At the end of the enzyme reaction, 50 μL/well of a Luciferin detection reagent (Promega) was added to the wells, and the plate was left at room temperature for 20 minutes. Then, the emission intensities were measured with Infinite M1000 (TECAN). The enzyme activities (%) relative to the value of the group to which the test compound was not added were calculated.

Sequence of NK1 receptor (Q5DUB1 whole entry): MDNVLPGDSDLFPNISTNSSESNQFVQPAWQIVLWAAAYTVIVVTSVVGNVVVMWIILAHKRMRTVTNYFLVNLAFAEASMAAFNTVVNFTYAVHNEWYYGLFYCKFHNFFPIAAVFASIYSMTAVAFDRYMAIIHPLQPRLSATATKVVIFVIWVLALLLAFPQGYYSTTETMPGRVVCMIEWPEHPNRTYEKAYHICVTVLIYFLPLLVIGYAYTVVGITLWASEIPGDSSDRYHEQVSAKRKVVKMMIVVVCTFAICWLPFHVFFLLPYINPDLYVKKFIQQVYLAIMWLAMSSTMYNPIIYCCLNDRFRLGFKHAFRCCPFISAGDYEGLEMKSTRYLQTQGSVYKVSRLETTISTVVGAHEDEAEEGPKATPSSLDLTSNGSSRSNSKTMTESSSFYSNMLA
Sequence of human CYP3A4 (P08684 whole entry): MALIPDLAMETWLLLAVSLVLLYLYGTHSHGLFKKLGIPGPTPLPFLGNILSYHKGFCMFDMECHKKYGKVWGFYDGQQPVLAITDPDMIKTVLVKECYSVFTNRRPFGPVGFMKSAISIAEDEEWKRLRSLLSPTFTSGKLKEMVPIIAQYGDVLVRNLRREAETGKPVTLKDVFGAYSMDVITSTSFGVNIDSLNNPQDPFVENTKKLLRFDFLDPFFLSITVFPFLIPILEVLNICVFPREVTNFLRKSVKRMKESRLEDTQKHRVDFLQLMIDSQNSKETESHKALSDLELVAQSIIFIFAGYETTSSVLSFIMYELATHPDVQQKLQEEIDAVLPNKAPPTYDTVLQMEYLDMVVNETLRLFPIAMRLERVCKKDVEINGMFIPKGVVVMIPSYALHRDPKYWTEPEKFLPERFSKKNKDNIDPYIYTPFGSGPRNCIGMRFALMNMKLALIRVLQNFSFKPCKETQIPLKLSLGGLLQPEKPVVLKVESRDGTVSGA
Sequence of human NK1 receptor (P25103 whole entry): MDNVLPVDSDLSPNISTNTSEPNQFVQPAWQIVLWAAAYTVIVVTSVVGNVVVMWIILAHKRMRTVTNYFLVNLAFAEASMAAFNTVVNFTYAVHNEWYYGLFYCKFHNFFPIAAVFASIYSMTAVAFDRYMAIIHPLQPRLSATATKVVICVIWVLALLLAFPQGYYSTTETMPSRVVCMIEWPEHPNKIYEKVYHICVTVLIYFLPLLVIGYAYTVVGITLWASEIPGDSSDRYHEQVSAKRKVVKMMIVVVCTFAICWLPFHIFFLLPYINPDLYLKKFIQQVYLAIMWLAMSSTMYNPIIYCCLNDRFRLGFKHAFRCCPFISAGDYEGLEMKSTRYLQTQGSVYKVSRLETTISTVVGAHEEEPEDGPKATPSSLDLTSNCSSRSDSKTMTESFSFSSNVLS

Take `Cc1cc(F)ccc1-c1cc(C2CCC(C(=O)O)CC2)ncc1N(C)C(=O)C(C)(C)c1cc(C(F)(F)F)cc(C(F)(F)F)c1` (stereo not shown) [Example 1, 4-[5-{[2-(3,5-Bistrifluoromethylphenyl)-2-methylpropionyl]methylamino}-4-(4-fluoro-2-methylphenyl)pyridin-2-yl]cyclohexanecarboxylic Acid]: the “Inhibition (%), foot-tapping inhibition rate” value (from here on “Inhibition (%)”) in series [1] stood at 98%. The “Conc. (nM), drug concentration in the brain” value (shortened to “Conc. (nM), drug concentration”) in series [2] is 24 nM. Moreover, in series [3], the remaining activity at 0.1 µM amounted to 20%. The IC50 in series [4] was 13 µM.

As for `Cc1cc(F)ccc1-c1cc(C2CCCC(CC(=O)O)C2)ncc1N(C)C(=O)C(C)(C)c1cc(C(F)(F)F)cc(C(F)(F)F)c1` (stereo not shown) [Example 3, {3-[5-{[2-(3,5-Bistrifluoromethylphenyl)-2-methylpropionyl]methylamino}-4-(4-fluoro-2-methylphenyl)pyridin-2-yl]cyclohexyl}acetic Acid], the “Inhibition (%)” value in series [1] is 100%. Also, the “Conc. (nM), drug concentration” value in series [2] worked out at 48 nM. Moreover, the remaining activity at 0.1 µM in series [3] was 36%. The IC50 in series [4] worked out at 9.4 µM.

As for `Cc1cc(F)ccc1-c1cc(C2(C)CCCC(CC(=O)O)C2)ncc1N(C)C(=O)C(C)(C)c1cc(C(F)(F)F)cc(C(F)(F)F)c1` (stereo not shown) [Example 4, {3-[5-{[2-(3,5-Bistrifluoromethylphenyl)-2-methylpropionyl]methylamino}-4-(4-fluoro-2-methylphenyl)pyridin-2-yl]-3-methylcyclohexyl}acetic Acid], the “Inhibition (%)” value in series [1] is listed as 77%. Also, in series [2], the “Conc. (nM), drug concentration” value is given as 35 nM. In series [3], the remaining activity at 0.1 µM turned out to be 57%. Also, the IC50 in series [4] was 7.1 µM.

As for `Cc1cc(F)ccc1-c1cc(C2CCC3(CC2)CC3C(=O)O)ncc1N(C)C(=O)C(C)(C)c1cc(C(F)(F)F)cc(C(F)(F)F)c1` (stereo not shown) [Example 7, 6-[5-{[2-(3,5-Bistrifluoromethylphenyl)-2-methylpropionyl]methylamino}-4-(4-fluoro-2-methylphenyl)pyridin-2-yl]spiro[2.5]octane-1-carboxylic Acid], the “Inhibition (%)” value in series [1] turned out to be 90%. Further, the “Conc. (nM), drug concentration” value in series [2] is 24 nM. Besides, the remaining activity at 0.1 µM in series [3] stood at 9.4%. Further, in series [4], the IC50 is 11 µM.

As for `Cc1cc(F)ccc1-c1cc(C2CCC(CC(=O)O)CC2)nc(C#N)c1N(C)C(=O)C(C)(C)c1cc(C(F)(F)F)cc(C(F)(F)F)c1` (stereo not shown) [Example 8, {4-[5-{[2-(3,5-Bistrifluoromethylphenyl)-2-methylpropionyl]methylamino}-6-cyano-4-(4-fluoro-2-methylphenyl)pyridin-2-yl]cyclohexyl}acetic Acid], in series [1], the “Inhibition (%)” value was determined as 100%. Also, the “Conc. (nM), drug concentration” value in series [2] amounted to 59 nM. Further, the remaining activity at 0.1 µM in series [3] amounted to 31%. In addition, the IC50 in series [4] was 6.1 µM.

For `Cc1ccccc1-c1cc(C2CCC(CC(=O)O)CC2)ncc1N(C)C(=O)C(C)(C)c1cc(C(F)(F)F)cc(C(F)(F)F)c1` (stereo not shown) [Example 9, {4-[5-{[2-(3,5-Bistrifluoromethylphenyl)-2-methylpropionyl]methylamino}-4-ortho-tolylpyridine-yl]-cyclohexyl}acetic Acid], the “Inhibition (%)” value in series [1] was 75%. Further, the “Conc. (nM), drug concentration” value in series [2] amounted to 47 nM. Besides, in series [3], the remaining activity at 0.1 µM was found to be 42%. Moreover, in series [4], the IC50 was found to be 6.9 µM.

As to `Cc1cc(F)ccc1-c1cc(C2CCC(C(C)C(=O)O)CC2)ncc1N(C)C(=O)C(C)(C)c1cc(C(F)(F)F)cc(C(F)(F)F)c1` (stereo not shown) [Example 10, 2-{4-[5-{[2-(3,5-Bistrifluoromethylphenyl)-2-methylpropionyl]methylamino}-4-(4-fluoro-2-methylphenyl)pyridin-2-yl]cyclohexyl}propionic Acid], the “Inhibition (%)” value in series [1] came to 97%. Also, the “Conc. (nM), drug concentration” value in series [2] was determined as 42 nM. For the same molecule, the remaining activity at 0.1 µM in series [3] is 8.6%. Moreover, the concentration for half-maximal inhibition (IC50) in series [4] was 11 µM.

Usually IC50 stands for the concentration that gives 50% inhibition.
